Values of other authors, collected in publication PMC3136501 (PLoS ONE, 2011).

System: OCTs
Conditions: high-affinity interaction with OCTs; cited from earlier work

Nc1nc(NC2CC2)c2ncn([C@H]3C=C[C@@H](CO)C3)c2n1 [Abacavir]
IC50 (interaction with OCTs): low nanomolar range

Cc1cn([C@H]2C[C@H](N=[N+]=[N-])[C@@H](CO)O2)c(=O)[nH]c1=O [Azidothymidine]
IC50 (interaction with OCTs): low nanomolar range

Nc1nc(=O)n([C@@H]2CS[C@H](CO)O2)cc1F [Emtricitabine]
IC50 (interaction with OCTs): low nanomolar range

Nc1ccn([C@@H]2CS[C@H](CO)O2)c(=O)n1 [Lamivudine]
IC50 (interaction with OCTs): low nanomolar range

C[C@H](Cn1cnc2c(N)ncnc21)OCP(=O)(O)O [Tenofovir]
IC50 (interaction with OCTs): low nanomolar range
